Measurements from patent publication US20150190440A1, “BLOOD PRESSURE REDUCING COMPOSITION FABRICATED BY USING MONASCUS PURPUREUS NTU 568 AND PRIMER FOR THE MONASCUS PURPUREUS NTU 568” (Sunway Biotech Co., LTD, priority 2014, published 2015).

Legend:
Type in all cases: in vivo, rat
[1] = tested on: Spontaneous hypertensive rats (SHRs); assay: Blood pressure after one single oral administration in SHRs; conditions: M: SHR
Description: (§2) Spontaneous hypertensive rats (SHRs) and Wistar-Kyoto strains of normotensive rats (WKYs) are chosen to be experiment animals, wherein the SHRs would spontaneously suffer from the hypertension when they grow to 5˜6 weeks old. Herein, 8-week old SHRs are used for carrying out the experiments, and these 8-week old SHRs and WKYs are pre-fed with chew diet and water for 5 weeks before starting the experiments. […] The rats in the 9 groups are fed with the main feeding stuffs (i.e., chew diet and water) during first week to 13-th week. Moreover, the rats in the 9 groups are fed with the main feeding stuffs as well as the extract feeding stuffs at 14-th week in order to accomplish one single oral administration experiments; therefore, the rats in the 9 groups are continuously fed with the main feeding stuffs as well as the extract feeding stuffs starting from 14-th week and continuing for 8 weeks, so as to carry out one chronic administration experiment.
According to the body surface area (BSA) equation provided by Food and Drug Administration (FDA), the BSA of a standard person with the body height of 170 cm and the body weight of 65 kg can be calculated through the mathematical calculation formula of BSA (m^2)=0.003207{H^0.3×W^[0.07285−(0.0188×LOG (w))]}, wherein the BSA value obtained from aforesaid calculation formula for the standard person is 1.762 m^2. On the other hand, the BSA value for the SHRs can also be calculated through the mathematical calculation formula of BSA (m^2) (8.99 W^0.6899)/100, and the BSA value is 0.049 m^2. Moreover, because the experiments use “2.2 g” as a standard feeding dosage, the “1-fold” in Table 6 can be calculated to 176 mgkg^−1day^−1 according to BSA value of the SHRs. Herein, it needs to further explain that, M group is taken as a positive control group because amlodipine is a well-known blood pressure lowering substance. In the experiments, the lowest effective dosage (i.e., 1-fold dosage) for amlodipine is defined to 0.4 mgkg^−1day^−1.

[2] = tested on: Spontaneous hypertensive rats (SHRs); assay: Liver function indexes of SHRs; conditions: M: SHR, amlodipine 0.4 mgkg-1day-1
Description: (§1) Spontaneous hypertensive rats (SHRs) and Wistar-Kyoto strains of normotensive rats (WKYs) are chosen to be experiment animals, wherein the SHRs would spontaneously suffer from the hypertension when they grow to 5˜6 weeks old. Herein, 8-week old SHRs are used for carrying out the experiments, and these 8-week old SHRs and WKYs are pre-fed with chew diet and water for 5 weeks before starting the experiments. Herein, it needs to further explain that, the experiment groups listed in Table 6 are divided to 9 groups. The rats in the 9 groups are fed with the main feeding stuffs (i.e., chew diet and water) during first week to 13-th week. Moreover, the rats in the 9 groups are fed with the main feeding stuffs as well as the extract feeding stuffs at 14-th week in order to accomplish one single oral administration experiments; therefore, the rats in the 9 groups are continuously fed with the main feeding stuffs as well as the extract feeding stuffs starting from 14-th week and continuing for 8 weeks, so as to carry out one chronic administration experiment. The designed experiment groups consist of:
With reference to following Table 11, which record the liver function indexes data of SHRs and WKYs in the experiment groups listed in Table 6. […] Wherein the liver function indexes data include: aspartate aminotransferase (AST), alanine aminotransferase (ALT), alkaline phosphatase, albumin, globulin, γ-Glutamyltransferase (γ-GT), total protein, and A/G ratio.

[3] = tested on: Spontaneous hypertensive rats (SHRs); assay: Blood lipids of SHRs; conditions: M: SHR, amlodipine 0.4 mgkg-1day-1
Description: as §1, with “experiment.” for “experiment. The designed experiment groups consist of:”

[4] = tested on: Spontaneous hypertensive rats (SHRs); assay: Blood pressure in 8-week chronic administration experiment in SHRs; conditions: M: SHR
Description: as §2
Moreover, because the experiments use “2.2 g” as a standard feeding dosage, the “1-fold” in Table 6 can be calculated to 176 mgkg^−1day^−1 according to BSA value of the SHRs. Herein, it needs to further explain that, M group is taken as a positive control group because amlodipine is a well-known blood pressure lowering substance. In the experiments, the lowest effective dosage (i.e., 1-fold dosage) for amlodipine is defined to 0.4 mgkg^−1day^−1.

[5] = tested on: Spontaneous hypertensive rats (SHRs); assay: Kidney function, electrolytes and creatine phosphokinase indexes of SHRs; conditions: M: SHR, amlodipine 0.4 mgkg-1day-1
Description: as §1
Continuously, please refer to following Table 12, which record the data of kidney function indexes, electrolytes indexes and creatine phosphokinase indexes of SHRs and WKYs in the experiment groups listed in Table 6. From Table 12, it can find that the kidney function indexes, the electrolytes indexes and the creatine phosphokinase indexes of SHRs in 1R, 5R, 1RM, and 5RM groups are normal comparing to the kidney function indexes, the electrolytes indexes and the creatine phosphokinase indexes of SHRs in C group. Moreover, the kidney function indexes, the electrolytes indexes and the creatine phosphokinase indexes of SHRs in W1R and W5R groups are normal comparing to the kidney function indexes, the electrolytes indexes and the creatine phosphokinase indexes of WKYs in WC group. Wherein the kidney function indexes include blood urea nitrogen (BUN), creatinine and uric acid, and the electrolytes indexes include sodium and potassium. […] It is well know that, when the kidney is at a kidney failure situation, the concentration of creatinine and uric acid in blood serum would increase. […] It is well know that, when the muscle is subject to damage, the concentration of CPK in blood serum would increase.

[6] = tested on: Spontaneous hypertensive rats (SHRs); assay: Heart rate of SHRs; conditions: M: SHR, amlodipine 0.4 mgkg-1day-1
Description: as §1
Continuously, please refer to following Table 10, which record the heart rate data of SHRs and WKYs in the experiment groups listed in Table 6. From Table 10, it can find that the heart rate of SHRs in 1R, 5R, 1RM, and 5RM groups are normal comparing to the heart rate of SHRs in C group. Moreover, the heart rate of SHRs in W1R and W5R groups are normal comparing to the heart rate of WKYs in WC group.

[7] = amlodipine 0.4 mgkg-1day-1, 0 hr
[8] = amlodipine 0.4 mgkg-1day-1, 4 hr
[9] = amlodipine 0.4 mgkg-1day-1, 8 hr
[10] = amlodipine 0.4 mgkg-1day-1, 24 hr
[11] = amlodipine 0.4 mgkg-1day-1, 0 week
[12] = amlodipine 0.4 mgkg-1day-1, 2 week
[13] = amlodipine 0.4 mgkg-1day-1, 4 week
[14] = amlodipine 0.4 mgkg-1day-1, 6 week
[15] = amlodipine 0.4 mgkg-1day-1, 8 week

CCOC(=O)C1=C(COCCN)NC(C)=C(C(=O)OC)C1c1ccccc1Cl (centres unmarked) [amlodipine]
DBP [1, 7]: 143 ± 2.9 mmHg | SBP [1, 7]: 180 ± 3.6 mmHg | DBP [1, 8]: 143 ± 3.8 mmHg | SBP [1, 8]: 178 ± 5.4 mmHg | DBP [1, 9]: 134 ± 4.9 mmHg | SBP [1, 9]: 171 ± 3.1 mmHg | DBP [1, 10]: 137 ± 4.2 mmHg | SBP [1, 10]: 175 ± 7.6 mmHg | A/G ratio [2]: 2.1 ± 0.4 | ALT [2]: 85.7 ± 6.1 U/L | AST [2]: 125.8 ± 4.6 U/L | Albumin [2]: 5.4 ± 0.2 g/dL | Alkaline phosphatase [2]: 143.3 ± 7.6 IU/L | Globulin [2]: 2.6 ± 0.1 g/dL | Total protein [2]: 8.2 ± 0.1 g/dL | Cholesterol [3]: 79.8 ± 3.6 mg/dL | Cholesterol/HDL-C [3]: 1.3 ± 0.1 | HDL-C [3]: 60.3 ± 1.9 mg/dL | LDL-C [3]: 10.0 ± 0.7 mg/dL | Triacylglycerol [3]: 69.3 ± 6.8 mg/dL | DBP [4, 11]: 143 ± 2.9 mmHg | SBP [4, 11]: 180 ± 3.6 mmHg | DBP [4, 12]: 145 ± 3.6 mmHg | SBP [4, 12]: 178 ± 5.4 mmHg | DBP [4, 13]: 140 ± 3.8 mmHg | SBP [4, 13]: 171 ± 3.1 mmHg | DBP [4, 14]: 139 ± 1.9 mmHg | SBP [4, 14]: 175 ± 7.6 mmHg | DBP [4, 15]: 135 ± 2.7 mmHg | SBP [4, 15]: 175 ± 7.6 mmHg | BUN [5]: 23.7 ± 0.8 mg/dL | Creatinine [5]: 0.48 ± 0.1 mg/dL | Creatinine phosphokinase [5]: 287.0 ± 12.2 U/L | Potassium [5]: 8.8 ± 0.4 meq/L | Sodium [5]: 152.4 ± 0.9 meq/L | Uric acid [5]: 5.8 ± 0.6 mg/dL | Heart rate ([6]; 0 hr): 402 ± 6.9 bpm | Heart rate ([6]; 2 week): 402 ± 6.7 bpm | Heart rate ([6]; 4 week): 404 ± 4.8 bpm | Heart rate ([6]; 6 week): 403 ± 6.1 bpm | Heart rate ([6]; 8 week): 402 ± 3.0 bpm | Heart rate ([6]; 4 hr): 401 ± 6.5 bpm | Heart rate ([6]; 8 hr): 400 ± 4.8 bpm | Heart rate ([6]; 24 hr): 402 ± 4.9 bpm
